Experimental data from US20240270792A1, “SHORT ANTIMICROBIAL PEPTIDES” (priority 2021, published 2024).
Converted amounts (≈) assume the structure as drawn. Square brackets hold non-standard residues; d marks the D form. Ends that are not written are not given here. Peptide text beside a SMILES is read from it. hPhe = N[C@@H](CCc1ccccc1)C(=O)O; αMeF = C[C@](N)(Cc1ccccc1)C(=O)O

Experiments:
[1] = system: Streptococcus pyogenes ATCC 19615; format: cell-based; settings: Gram-positive, BHI, 18-24 hrs at 37° C.
Text: (§1) The following strains were used: • Gram-negative bacteria: Escherichia coli ATCC 25922, Pseudomonas aeruginosa ATCC 27853, Acinetobacter baumannii ATCC 19606, Klebsiella pneumoniae ATCC 13883, • Gram-positive bacteria: Staphylococcus aureus ATCC 25923, multi-drug resistant Staphylococcus aureus ATCC BAA-44, Streptococcus pyogenes ATCC 19615, Listeria ivanovii Li4pVS2, Enterococcus faecalis ATCC 29212,
(§2) For each strain, a standard inoculum of approximately 10^6 bacteria/mL (exponential growth phase) was prepared. To this end, a colony isolated on LB agar previously inoculated with one of the strains was cultured in 4 ml of LB broth medium, except for S. pyogenes and L. ivanovii which were grown in BHI (Brain Heart Infusion) from a colony isolated on BHI agar. Liquid cultures were then incubated for 2 to 3 hrs at 37° C. with shaking for the bacteria to reach exponential growth phase. After centrifugation, most of the bacterial suspensions were diluted in Mueller-Hinton (MH) broth medium to an OD630nm of 0.01, which corresponds to a concentration of approximately 10^6 cfu/mL (cfu: colony forming unit). A different medium was used for E. faecalis (LB) and for S. pyogenes and L. ivanovii (BHI).
(§3) The minimum inhibitory concentration (MIC) of each peptide was determined by a test of growth inhibition in broth medium. […] The test was performed in a sterile 96-well microtiter plate. A series of increasing concentrations of peptide (2 to 400 μM) was first prepared in sterile MilliQ water. 50 μL of each peptide concentration were mixed into the well with 50 μL of bacterial suspension (10^6 cfu/ml). The microtiter plate was then incubated for 18-24 hrs at 37° C. with shaking. Bacterial growth was determined by measuring OD at 630 nm (turbidity) on a plate reader. Tests were carried out in triplicate for each peptide concentration and at least three independent experiments were performed to determine the MIC value.
(§4) The growth inhibition negative control was obtained by replacing the solution containing the peptide with 50 μL of sterile MilliQ water. The positive control allowing the complete inhibition of bacterial growth was obtained by replacing the solution containing the peptide with 50 μL, of 0.7% formaldehyde.

Staphylococcus aureus = format: cell-based; settings: Gram-positive, 18-24 hrs at 37° C.
Text: as §1, §2, §3, §4

[2] = system: Listeria ivanovii Li4pVS2; format: cell-based; settings: Gram-positive, BHI, 18-24 hrs at 37° C.
Text: as §1, §2, §3, §4

[3] = system: Escherichia coli ATCC 25922; format: cell-based; settings: Gram-negative, 18-24 hrs at 37° C.
Text: as §1, §2, §3, §4

[4] = system: Enterococcus faecalis ATCC 29212; format: cell-based; settings: Gram-positive, LB, 18-24 hrs at 37° C.
Text: as §1, §2, §3, §4

[5] = system: Pseudomonas aeruginosa ATCC 27853; format: cell-based; settings: Gram-negative, 18-24 hrs at 37° C.
Text: as §1, §2, §3, §4

[6] = system: Acinetobacter baumannii ATCC 19606; format: cell-based; settings: Gram-negative, 18-24 hrs at 37° C.
Text: as §1, §2, §3, §4

[7] = Cytotoxicity assay: hemolysis of erythrocytes; format: cell-based; settings: 50% hemolysis, human erythrocytes, 1 h at 37° C., pH 7.4; read-out: LC50 Erythrocytes Human
Experimental: Hemolytic experiments were performed using human erythrocytes obtained from healthy adult donors (Etablissement Français du sang, Paris, France) according to a previously described protocol (Abbassi et al., “Isolation, characterization and molecular cloning of new temporins from the skin of the North African ranid Pelophylax saharica”, Peptides, 2008, 29: 1526-33).
Briefly, synthetic peptides (1-200 μM, final concentrations) were incubated (100 μL, final volume) with erythrocytes (2×10^7 cells) in Dulbecco's phosphate-buffered saline (pH 7.4) for 1 h at 37° C. After centrifugation (12,000×g, 15 s), the absorbance of the supernatant was measured at 450 nm.

[8] = system: Klebsiella pneumoniae ATCC 13883; experiment: MIC, growth inhibition in broth medium; format: cell-based; settings: Gram-negative, 18-24 hrs at 37° C.
Text: as §1
as §2, with “A different medium was used for E. faecalis (LB) and for S. pyogenes and L. ivanovii (BHI).” left out
The minimum inhibitory concentration (MIC) of each peptide was determined by a test of growth inhibition in broth medium. […] Bacterial growth was determined by measuring OD at 630 nm (turbidity) on a plate reader. […]

[9] = system: Gram-positive and Gram-negative bacteria; settings: cited from earlier work

Row | Molecule | MIC SP [1] | MIC SA (Staphylococcus aureus) | MIC LI [2] | MIC EC [3] | MIC EF [4] | MIC PA [5] | MIC AB [6] | HC50 at 1 h [7] | MIC KP [8] | CC50 at 1 h [7] | antimicrobial activity [9]
1 | CC[C@H](C)[C@H](NC(=O)[C@H](CCCNC(=N)N)NC(=O)[C@H](CO)NC(=O)[C@H](CC(C)C)NC(=O)[C@H](Cc1ccccc1)NC(=O)[C@H](Cc1ccccc1)NC(=O)[C@@H](N)Cc1ccccc1)C(=O)N[C@@H](Cc1ccccc1)C(N)=O [compound 2] | 25 µM (≈ 26.9 µg/mL) | 25 µM (≈ 26.9 µg/mL) | 50 µM (≈ 53.8 µg/mL) | 50 µM (≈ 53.8 µg/mL) | 100 µM (≈ 108 µg/mL) | >100 µM | >100 µM | > 200 µM |  |  | 
2 | CC[C@H](C)[C@H](NC(=O)[C@H](CCCNC(=N)N)NC(=O)[C@H](CCCNC(=N)N)NC(=O)[C@H](CC(C)C)NC(=O)[C@H](CCc1ccccc1)NC(=O)[C@H](Cc1ccccc1)NC(=O)[C@@H](N)Cc1ccccc1)C(=O)N[C@@H](Cc1ccccc1)C(N)=O [compound 19] | 12.5 µM (≈ 14.5 µg/mL) | 6.25 µM (≈ 7.24 µg/mL) |  | 12.5 µM (≈ 14.5 µg/mL) |  | 25 µM (≈ 29 µg/mL) | 25 µM (≈ 29 µg/mL) | 170 µM |  |  | 
3 | N=C(N)NCCC[C@H](NC(=O)[C@H](CCCNC(=N)N)NC(=O)[C@H](Cc1ccccc1)NC(=O)[C@H](Cc1ccccc1)NC(=O)[C@H](Cc1ccccc1)NC(=O)[C@@H](N)Cc1ccccc1)C(=O)N[C@@H](Cc1ccccc1)C(=O)N[C@@H](Cc1ccccc1)C(N)=O [compound 39] | 3 µM (≈ 3.64 µg/mL) | 6.25 µM (≈ 7.58 µg/mL) | 12.5 µM (≈ 15.2 µg/mL) | 12.5 µM (≈ 15.2 µg/mL) | 50 µM (≈ 60.6 µg/mL) | 12.5 µM (≈ 15.2 µg/mL) | 25 µM (≈ 30.3 µg/mL) | > 200 µM |  |  | 
4 | N=C(N)NCCC[C@H](NC(=O)[C@H](CCCNC(=N)N)NC(=O)[C@H](Cc1ccccc1)NC(=O)[C@H](CCCNC(=N)N)NC(=O)[C@H](Cc1ccccc1)NC(=O)[C@@H](N)Cc1ccccc1)C(=O)N[C@@H](Cc1ccccc1)C(=O)N[C@@H](Cc1ccccc1)C(N)=O [compound 50] | 6.25 µM (≈ 7.63 µg/mL) | 6.25 µM (≈ 7.63 µg/mL) |  |  | 100 µM (≈ 122 µg/mL) | 12.5 µM (≈ 15.3 µg/mL) | 100 µM (≈ 122 µg/mL) | > 200 µM |  |  | 
5 | N=C(N)NCCC[C@H](NC(=O)[C@H](CCCNC(=N)N)NC(=O)[C@H](Cc1ccccc1)NC(=O)[C@H](Cc1ccccc1)NC(=O)[C@H](CCc1ccccc1)NC(=O)[C@@H](N)Cc1ccccc1)C(=O)N[C@@H](Cc1ccccc1)C(=O)N[C@@H](Cc1ccccc1)C(N)=O [compound 51] (H-F[hPhe]FFRRFF-NH2; N-terminus assumed) |  |  |  |  |  |  |  |  | 25 µM (≈ 30.7 µg/mL) | 159 µM | 
6 | N=C(N)NCCC[C@H](NC(=O)[C@H](CCCNC(=N)N)NC(=O)[C@H](Cc1ccccc1)NC(=O)[C@H](CCc1ccccc1)NC(=O)[C@H](Cc1ccccc1)NC(=O)[C@@H](N)Cc1ccccc1)C(=O)N[C@@H](Cc1ccccc1)C(=O)N[C@@H](Cc1ccccc1)C(N)=O [compound 53] | 6.25 µM (≈ 7.67 µg/mL) | 3 µM (≈ 3.68 µg/mL) |  | 12.5 µM (≈ 15.3 µg/mL) | 50 µM (≈ 61.3 µg/mL) | 12.5 µM (≈ 15.3 µg/mL) | 12.5 µM (≈ 15.3 µg/mL) | 140 µM |  |  | 
7 | FF(α-MeF)LSRIFamide (FF[αMeF]LSRIF-NH2; N-terminus assumed; SMILES CC[C@H](C)[C@H](NC(=O)[C@H](CCCNC(=N)N)NC(=O)[C@H](CO)NC(=O)[C@H](CC(C)C)NC(=O)[C@](C)(Cc1ccccc1)NC(=O)[C@H](Cc1ccccc1)NC(=O)[C@@H](N)Cc1ccccc1)C(=O)N[C@@H](Cc1ccccc1)C(N)=O) [SEQ ID No 7, excluded known SHf analog] |  |  |  |  |  |  |  |  |  |  | strong activity against Gram-positive and Gram-negative bacteria, including Klebsiella pneumoniae
8 | FFFFKRFF-NH2 [compound 42] | 12.5 µM | 6.25 µM |  |  | >100 µM | 12.5 µM |  | > 200 µM |  |  | 
9 | FFFFRKFF-NH2 [compound 43] | 12.5 µM |  |  |  | 100 µM | 12.5 µM | 12.5 µM | > 200 µM |  |  | 
10 | FFFFSRFF-NH2 [compound 34] | 6.25 µM | 12.5 µM | 25 µM | >100 µM | 100 µM | >100 µM | >100 µM | > 200 µM |  |  | 
11 | FFFRRRFF-NH2 [compound 38] | 12.5 µM |  |  | 25 µM | >100 µM | 25 µM | 100 µM | > 200 µM |  |  | 
12 | FFRRFFFF-NH2 [compound 41] | 6.25 µM | 6.25 µM |  | 12.5 µM | 50 µM | 12.5 µM | 12.5 µM | > 200 µM |  |  | 
13 | FRFFRRFF-NH2 [compound 49] | 25 µM |  |  |  | >100 µM | 6.25 µM |  | > 200 µM |  |  | 
14 | FRFRFRFF-NH2 [compound 55] | 12.5 µM | 3 µM |  |  | >100 µM |  |  | > 200 µM |  |  | 
15 | FRFRFRFR-NH2 [compound 56] | 6.25 µM |  |  | 3 µM | 30 µM |  | 25 µM | > 200 µM |  |  | 
16 | RFFFRRFF-NH2 [compound 72] | 25 µM | 6.25 µM |  |  | >100 µM | 12.5 µM | 100 µM | > 200 µM |  |  | 
